Assays:
Type in all cases: cell-based, soya bean (Glycine max (L.) Merrill)
[1] = system: soya bean proliferative embryogenic tissues; assay: Transformation of soya bean embryogenic tissues by particle bombardment, HPPD inhibitor selection on D20 medium (green calluses); conditions: bleaching before bombardment
Source text: The technology used for transforming soya bean has been described by Santarem & Finer: Transformation of soya bean (Glycine max (L.) Merrill) using proliferative embryogenic tissue maintained on semi-solid medium. In Vitro Cell. Dev. Biol. Plant 35 451-455, 1999. It comprises the steps hereinafter.
Immature zygotic embryos (from 3 to 4 mm) are aseptically dissected and placed with the adaxial side upwards in a medium comprising 2.4D (D40).
After culturing for 3 weeks in D40 medium, the cotyledons are transferred onto a D20 medium which comprises essentially the same elements as the D40 medium, with the exception of the 2.4D concentration, which is decreased to […], and the sucrose concentration, which is decreased from 60 g/l to 30 g/l, at pH 5.7.
On this medium, the somatic embryos begin to proliferate in the form of compact aggregates or clumps. The embryogenic clumps are then transferred every two weeks onto a new D20 medium in order to increase the production of tissues. Five or six transfers (approximately 3 months) onto this medium are necessary in order to optimize their competence at transformation. The use of embryogenic tissues which are at an earlier stage produces much poorer results.
Particle bombardment is used for transforming the embryogenic tissues.
Particle preparation: flnctionalized tungsten (M17) particles are prepared according to U.S. Pat. No. 6,068,980. The particles are functionalized by grafting aminated silicones as the vectorization element, and washed in absolute ethanol. 2.5 mg of particles in ethanol are mixed with 3 μg of DNA. After precipitation, the particles are pipetted and used for two shots with a particle gun of the PIG type described by Finer, Vain, Lones and McMullen in: Development of the Particle Inflow Gun for DNA delivery to plant cells. Plant Cell Rep. 11: 323-328, 1992.
Before the bombardment, the tissues are dried under vacuum under a laminar-flow hood for 5 to 10 min, and then placed between two 500 μm screens and bombarded twice.
The same selection method was developed for the HPPD inhibitors, with a D20 medium comprising 2 mg/l of isoxaflutole or 0.5 to 5 mg/l of diketonitriles. The gene for tolerance to HPPD inhibitors which was used as a selection marker is pCH73 or pCH94 represented in FIG. 1.
In order to avoid handling tissues and to gain time, the bombarded calluses are placed on sterile gauze screen fixed with two metal rings which enable direct contact between the embryogenic tissues and the solid medium. The gauze screens are transferred onto fresh media every 15 days until green calluses are observed. It is understood that the principle of callus transfer described above is not limited to soya bean calluses and to selection with hygromycin, but may be used for any method for culturing tissues and cells suspensions which requires frequent changing of culture medium.
(§1) 10 to 15 days prior to the bombardment, the isoxaflutole or the diketonitriles are introduced into the D20 medium, at the abovementioned concentrations, so as to bleach the tissues. After bombardment, the tissues are placed directly in the same D20 medium comprising […] of isoxaflutole or diketonitrile (between 0.5 and 5 mg/l) and transferred into fresh medium every 15 days. After 4 transfers onto the isoxaflutole. green calluses are identified and amplified as described in Example 1. The time required for producing calluses of cells which are competent for the bombardment is 3 and a half months. The selection of the transformed cells (green calluses) occurs approximately 6 months after the initiation of the calluses for the transformation.

[2] = system: soya bean proliferative embryogenic tissues; assay: Transformation of soya bean embryogenic tissues by particle bombardment, HPPD inhibitor selection on FNL medium (green calluses); conditions: for mean number of green calluses selected per transformation trial: bleached tissues according to the invention, pooled over both plasmids
Source text: In order to improve the selection process according to the invention, an attempt was made to decrease the number of tissue transfers and the time required for producing calluses of competent cells and green calluses selected after bombardment. To this effect, the D20 medium previously used was replaced with a modified FNL medium which allows rapid proliferation of the tissues. The FNL medium has been described by Samoylov, Tucker, Thibaud-Nissen & Parrott in: A liquid-medium-based protocol for rapid regeneration from embryogenic soya bean cultures: Plant Cell Rep, 18: 49-54, 1998. This medium makes it possible to produce tissues ready for bombardment more rapidly, greater embryogeny and shorter transfer cycles. Composition of the FNL medium: Na2EDTA: 37.24 mg/l; FeSO4, 7H2O: 27.84 mg/l; MgSO4, 7H2O: 370 mg/l; MnSO4. H2O: 16.9 mg/l; ZnSO4, H2O: 8.6 mg/l; CuSO4. 7H25O: 0.025 mg/l; CaCl2. 2H2O: 440 mg/l; KI: 0.83 mg/l; CoCl2. 6H2O: 0.025 mg/l; KH2PO4: 170 mg/l; H3BO3: 6.2 mg/l; Na2MoO4. 2H2O: 0.25 mg/l; myo-inositol: 100 mg/l; nicotinic acid: 1 mg/l; pyridoxine-HCl: 1 mg/l; thiamine-HCl: 10 mg/l; (NH4)2SO4: 460 mg/l; KNO3: 2820 mg/l; asparagine: 670 mg/l; 1% sucrose; 2.4-D: 10 mg/l; 0.3% […]; pH 5.7. […] The bombardment of tissues bleached with isoxaflutol according to the invention requires only one transfer of calluses before the selected green calluses are produced, against 4 when using the D20 medium. The time required for producing calluses from cells which are competent for the bombardment is 2 months, the transformed green calluses being selected approximately 3 months after the initiation of the calluses for transformation.

[3] = system: soya bean proliferative embryogenic tissues; assay: Transformation of soya bean embryogenic tissues by particle bombardment, HPPD inhibitor selection on D20 medium (green calluses); conditions: bleaching after bombardment
[4] = system: soya bean embryogenic tissues; assay: Bleaching and growth of soya bean embryogenic tissues on medium with HPPD inhibitor; conditions: tissues transferred for selection on isoxaflutole, D20 medium, 2 mg/l
Method: as §1, with “The same selection method was developed for the HPPD inhibitors, with a D20 medium comprising 2 mg/l of isoxaflutole or 0.5 to 5 mg/l of diketonitriles. The gene for tolerance to HPPD inhibitors which was used as a selection marker is pCH73 or pCH94 represented in FIG. 1. 10” for “10”, “transformation. […] This is due to the fact that the absence of carotenoids, of chlorophyll and of tocopherols is […] to the growth of tissues.” for “transformation.”

[5] = bleaching before bombardment, attempt 1
[6] = bleaching before bombardment, attempt 2
[7] = bleaching before bombardment, attempt 3

| Molecule | number of green calluses identified ([1]; attempt 1) | number of green calluses identified ([1]; attempt 2) | number of green calluses identified ([1]; attempt 3) | mean number of green calluses selected per transformation trial [2] | number of green calluses selected ([2]; bleaching after bombardment, attempt 1) | number of green calluses selected ([2]; bleaching after bombardment, attempt 2) | number of green calluses selected [2, 5] | number of green calluses selected [2, 6] | number of green calluses selected [2, 7] | number of green calluses identified ([3]; attempt 1) | number of green calluses identified ([3]; attempt 2) | number of green calluses identified ([3]; attempt 3) | number of green calluses selected ([2]; bleaching before bombardment, attempt 4) | bleaching of the tissues [4] | inhibition of growth of the tissues [4] |
| --- | --- | --- | --- | --- | --- | --- | --- | --- | --- | --- | --- | --- | --- | --- | --- |
| pCH73: plasmid carrying gene for tolerance to HPPD inhibitors: sunflower RuBisCo ssu promoter, optimized transit peptide, HPPDW336, NOS terminator; SEQ ID NO 1 | 0 | 0.5 | 0.25 | 1 per shot | 0.25 | 0 | 1 | 1.5 | 0.33 | 0 | 0 | 0.25 | – | – | – |
| pCH94: plasmid carrying gene for tolerance to HPPD inhibitors: Arabidopsis histone promoter, TEV enhancer, optimized transit peptide, HPPDW336, NOS terminator; SEQ ID NO 2 | 0.67 | 1 | 2 | 1 per shot | – | – | 1 | 1 | 0.33 | 0.67 | 0.33 | 0.25 | 1.5 | – | – |
| CS(=O)(=O)c1cc(C(F)(F)F)ccc1C(=O)c1cnoc1C1CC1 [isoxaflutole] | – | – | – | – | – | – | – | – | – | – | – | – | – | rapidly bleached | without any inhibition of growth being observed |

Reference: patent US6791014B2, “Use of HPPD inhibitors as selection agents in plant transformation” (Aventis Cropscience, S.A., priority 2000, dated 2004)
